In experiment [1] the test system is Wnt/β-catenin signaling (β-catenin activity) in HEK293 cell line. The experiment can be described thus: Cell-based Wnt agonist screening, TCF luciferase reporter, HEK293 (TCF-FL). On the set-up: species or system human. As to conditions: Homo sapiens, HEK293, 24 h, % of LiCl (20 mM), 24 h, read-out: Max. Activity (%); for Emax at 120 µM: Conc. 120 μM; for Emax at 30 µM: Conc. 30 μM; for Emax at 10 µM: Conc. 10 μM. The essentials:
(§1)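 HEK293 and SW480 lines stably carried a 5X TCF firefly luciferase reporter under G418 selection. Cells (8,000–15,000/well, RPMI 1640 with 5% FBS) were grown 24 h, then treated with compound for 24 h. Luciferase activity was expressed as percent of the 20 mM LiCl positive control.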

Experiment [2] has as its system Wnt/β-catenin signaling (β-catenin activity) in SW480 cell line. The experiment can be described thus: Cell-based Wnt agonist screening, TCF luciferase reporter, SW480 (TCF-FL). Set-up: species or system human. As to conditions: Homo sapiens, % of LiCl (20 mM), 24 h, read-out: Max. Activity (%); for Emax at 120 µM: Con. 120 μM; for Emax at 30 µM: Con. 30 μM; for Emax at 10 µM: Con. 10 μM. The essentials: as §1
In general terms: A reporter such as luciferase makes a cellular process visible.

The subject of experiment [3] is ST-2, a murine bone marrow stromal T cell. The experiment can be described thus: Differentiation of ST2 cell line into osteoblasts, alkaline phosphatase activity. As to conditions: Mus musculus, 96 h; ST-2 cells, 11 μM compound, 4 days; control treated only with ascorbic acid and β-glycerolphosphate = 100; read-out: ALP Activity (% Control). Type of experiment: cell-based. As for the experimental part:
The derivatives synthesized according to the present invention were assayed for their ability to differentiate stem cells into osteoblasts. In this regard, ST-2, a murine bone marrow stromal T cell, was used to measure the activity of bone-specific alkaline phosphatase, a marker of early-stage osteoblast differentiation. In detail, the cell line was cultured in an MEM supplemented with penicillin-streptomycin (100 Units/mL) and heat-inactivated 5% fetal bovine serum under standard culture conditions (5% CO2, 37° C., 100% relative humidity). […] The suspension was diluted with the same medium to adjust the cell count to 5,000˜10,000 cells per well, and was moved in a 96-well microtiter, subsequently. After being incubated for 24 hrs, the cells were treated in a medium containing 50 μg/ml of ascorbic acid and 5 mM of β-glycerolphosphate with various concentrations of the isoxazole derivatives synthesized in Preparation Examples. During incubation for one to nine days, the Alkaline phosphatase activity was analyzed using a […] Assay kit (Promega, U.S.A.) according to the protocol described in the manual provided by the manufacturer. The activities were measured in cells which had been incubated at 11 μM of each of the compounds for 4 days. Data on the activities of the isoxazole derivatives synthesized are given in Tables 44 to 47 and are expressed as percentages of ALP relative to that measured in the control, which was treated only with ascorbic acid and β-glycerolphosphate. ALP activities according to the concentrations of Derivative (1) are depicted in FIG. 5.

A further experiment relates to ovariectomized ICR mice. In words: In vivo osteoporosis assay in ovariectomized ICR mice (DEXA, micro-CT of spine L3-L6). As to conditions: Group 4 (OVX + AD): alendronate 5 mg/kg/day, oral, four weeks. As for the experimental part:
Experimental animals were female ICR mice having body weights of 24-28 g which were about 7 weeks old. In each cage, measuring 40×25×17 cm, 2-3 mice were reared at 22° C., RH 50%.
Ovariectomy is known as one of the most widely used techniques for inducing osteoporosis. As in postmenopause case, the ovariectomy-operation induce estrogen insufficient, result in decrease of osteogenesis and increase of bone resorption, lead to osteoporosis. Anaesthetized 7-week-old female ICR mice underwent ovariectomies and, immediately after the removal of both ovaries, they were administered with test compounds to determine the preventive and therapeutic effects thereof on osteoporosis.
1) Preparation of test material: Predetermined amounts of Derivative (1) were suspended in 0.5% CMC to prepare test materials to be administered. As for the control drug alendronate, 0.17% citric acid was added thereto as a pharmacopoeia to aid in the uptake of the drug.
2) Administration period: four weeks
3) Administration route and method: test materials were administered in a volume of 10 ml/kg of body weight, measured on the administration day, into seven groups: (1) intact control (ICR mice bred with typical diet, control); (2) ovariectomy control (the abdomen opened and closed without removal of the ovary, Sham); (3) ovariectomy group (ovaries removed, OVX); (4) alendronate-treated group (a dose of 5 mg/kg/day); (5) Derivative (1) 30 mg/kg/day treated group (OVX+Derivative (1) 30 mpk); (6) Derivative (1) 90 mg/kg/day treated group (OVX+Derivative (1) 90 mpk); and (7) Derivative (1) […] treated group (OVX+Derivative (1) 30 mpkW). Groups (1)˜(6) were orally treated five day a week for four weeks while group (7) was treated once a week for four weeks.
After administration for four weeks, the spine (L3-L6) was analyzed for bone mineral density (BMD) through dual-energy X-ray absorptiometry (DEXA) using a Lunar Pixi #5 instrument. Micro-computed tomography (Micro-CT) was performed to determine the effects of the test materials on bone mass and bone strength and on the tertiary bone mass of the spine (L3-L6).

Structures are written as SMILES.

`O=C(NCCCn1ccnc1)c1cc(-c2ccc([N+](=O)[O-])cc2)on1` [Derivative (114), 5-(4-nitro-phenyl)-isoxazole-3-carboxylic acid (3-imidazol-1-yl-propyl)-amide]: the Emax at 1 µM in experiment [1] (Conc. 1 μM) and in experiment [2] (Con. 1 μM) was 31% throughout. Moreover, the activity at 11 µM in experiment [3] was 339%.
For the compound `O=C(NCCCn1ccnc1)c1cc(-c2ccc(Cl)cc2)on1` [Derivative (98), 5-(4-chloro-phenyl)-isoxazole-3-carboxylic acid (3-imidazol-1-yl-propyl)-amide], the Emax at 120 µM in experiment [1] and in experiment [2] was 54% throughout. Moreover, the activity at 11 µM in experiment [3] was found to be 90%.
As for `O=C(NCCn1ccnc1)c1cc(-c2ccccc2F)on1` [Derivative (85), 5-(2-fluoro-phenyl)-isoxazole-3-carboxylic acid (2-imidazol-1-yl-ethyl)-amide], the Emax at 30 µM in experiment [1] and in experiment [2] was below 20% in each case. Moreover, the activity at 11 µM in experiment [3] was determined as 640%.
On to `O=C(NCCCn1cncn1)c1cc(-c2ccc(Cl)cc2)on1` [Derivative (96), 5-(4-chloro-phenyl)-isoxazole-3-carboxylic acid (3-[1,2,4]triazol-1-yl-propyl)-amide], for which the Emax at 120 µM in experiment [1] and in experiment [2] was 80% in each case. In addition, the activity at 11 µM in experiment [3] stood at 97%.
On to `COc1ccc(CCNC(=O)c2cc(-c3ccco3)on2)cc1` [Derivative (21), 5-furan-2-yl-isoxazole-3-carboxylic acid [2-(4-methoxy-phenyl)-ethyl]-amide], for which the Emax at 30 µM in experiment [1] came out at 23%; in experiment [2], 287%. In experiment [3], the activity at 11 µM came to 334%.
With `COc1ccccc1-c1cc(C(=O)NCCc2ccncc2)no1` [Derivative (104), 5-(2-methoxy-phenyl)-isoxazole-3-carboxylic acid (2-pyridin-4-yl-ethyl)-amide], in experiment [1], the Emax at 30 µM was found to be 35%. For the same compound, the Emax at 60 µM in experiment [1] (Conc. 60 μM) and in experiment [2] (Con. 60 μM) was 884% throughout. Moreover, the activity at 11 µM in experiment [3] was determined as 103%.
As for `Cc1cncn1CCNC(=O)c1cc(-c2ccco2)on1` [Derivative (36), 5-furan-2-yl-isoxazole-3-carboxylic acid [2-(5-methyl-imidazol-1-yl)-ethyl]-amide], the Emax at 120 µM stood at 71% in experiment [1] and 283% in experiment [2]. Also, the activity at 11 µM in experiment [3] is 396%.
As to `Cc1nccn1CCNC(=O)c1cc(-c2ccco2)on1` [Derivative (35), 5-furan-2-yl-isoxazole-3-carboxylic acid [2-(2-methyl-imidazol-1-yl)-ethyl]-amide], the Emax at 120 µM turned out to be 35% in experiment [1] and 130% in experiment [2]. For the same compound, in experiment [3], the activity at 11 µM is 686%.
On to `O=C(NCCc1ccc(O)c(O)c1)c1cc(-c2ccco2)on1` [Derivative (28), 5-furan-2-yl-isoxazole-3-carboxylic acid [2-(3,4-dihydroxy-phenyl)-ethyl]-amide], for which the Emax at 30 µM in experiment [1] and in experiment [2] was below 20% each time. The activity at 11 µM in experiment [3] worked out at 436%.
For the compound `Cc1ccc(CCNC(=O)c2cc(-c3ccco3)on2)cc1` [Derivative (15), 5-furan-2-yl-isoxazole-3-carboxylic acid (2-p-tolyl-ethyl)-amide], the Emax at 30 µM in experiment [1] and in experiment [2] was below 20% throughout. In addition, in experiment [3], the activity at 11 µM is 278%.
As for `COc1ccc(-c2cc(C(=O)NCCCn3ccnc3)no2)cc1` [Derivative (101), 5-(4-methoxy-phenyl)-isoxazole-3-carboxylic acid (3-imidazol-1-yl-propyl)-amide], the Emax at 120 µM in experiment [1] and in experiment [2] was 205% each time. Further, the activity at 11 µM in experiment [3] stood at 592%.
Turning to `O=C(NCCn1ccnc1)c1cc(-c2ccc(F)cc2)on1` [Derivative (86), 5-(4-fluoro-phenyl)-isoxazole-3-carboxylic acid (2-imidazol-1-yl-ethyl)-amide], the Emax at 30 µM in experiment [1] and in experiment [2] was below 20% throughout. In addition, the activity at 11 µM in experiment [3] was found to be 546%.
Take `NCCCC(O)(P(=O)(O)O)P(=O)(O)O` [Alendronate, alendronate, reference compound]: the “BMD (g/cm^2) Avg. ± SD” value with ovariectomized ICR mice (five day a week, spine L3-L6, DEXA) was determined as 0.066 ± 0.012 g/cm^2. Besides, in the experiment with ovariectomized ICR mice (Sham = 0.0), the “BMD Change (%)” value is reported as −4.3% and the “Trabeculae volume Change (%)” value was −25.1%. In the experiment on ovariectomized ICR mice (spine L3-L6, micro-CT), the “Trabeculae volume(mm^2) Avg. ± SD” value was found to be 15.5 ± 3.27 mm^2.
With `O=C(NCCn1cncn1)c1cc(-c2ccc(Cl)cc2)on1` [Derivative (97), 5-(4-chloro-phenyl)-isoxazole-3-carboxylic acid (2-[1,2,4]triazol-1-yl-ethyl)-amide], the Emax at 10 µM in experiment [1] and in experiment [2] was 53% throughout. For the same compound, the activity at 11 µM in experiment [3] worked out at 91%.
Regarding `COc1cccc(-c2cc(C(=O)NCCc3ccncc3)no2)c1` [Derivative (103), 5-(3-methoxy-phenyl)-isoxazole-3-carboxylic acid (2-pyridin-4-yl-ethyl)-amide], the Emax at 10 µM in experiment [1] and in experiment [2] was 42% each time. Besides, in experiment [3], the activity at 11 µM is 103%.
Take `O=C(NCCn1cccn1)c1cc(-c2ccc(F)cc2)on1` [Derivative (87), 5-(4-fluoro-phenyl)-isoxazole-3-carboxylic acid (2-pyrazol-1-yl-ethyl)-amide]: the Emax at 30 µM in experiment [1] and in experiment [2] was below 20% throughout. Further, the activity at 11 µM in experiment [3] is 428%.
As for `COc1ccc(-c2cc(C(=O)NCCc3ccncc3)no2)cc1` [Derivative (102), 5-(4-methoxy-phenyl)-isoxazole-3-carboxylic acid (2-pyridin-4-yl-ethyl)-amide], the Emax at 120 µM in experiment [1] and in experiment [2] was 73% each time. For the same compound, the activity at 11 µM in experiment [3] was determined as 148%.

These data come from patent publication US7915297B2, “Isoxazole derivatives and use thereof” (SK Holdings Co., Ltd., priority 2005, dated 2011).
